From patent US7078400B2, “20-HETE synthase inhibitor” (Taisho Pharmaceutical Co., Ltd., priority 1999, dated 2006) come the findings set out here.

In one assay the test system is 20-HETE synthase originated from rat kidney microsome. The experiment in a line: Inhibitory effect of 20-HETE synthase originated from rat kidney microsome. The format is biochemical. The following applies: 1 μM of subject compound; 20-HETE production without compound set to 100%; rat kidney microsome. The protocol:
Experimental Example [Inhibitory effect of 20-HETE synthase originated from rat kidney microsome]
Regarding the compounds listed in Table 1, their inhibitory activity to production of 20-HETE was examined.
The subject compound for this examination was added to a buffer comprising 50 mM of 3-morpholinopropane sulfonic acid (pH7.4), 5 mM of magnesium chloride and 1 mM of ethylenediaminetetraacetic acid (EDTA) disodium salt.
After that, the rat kidney microsome (microsome fraction prepared from the kidney of a spontaneous hypertension rat (male, 6 weeks of age)) as an enzyme, [5,6,8,9,11,12,14,15] tritium-arachidonic acid (supplied by Amasham) as a substrate, and NADPH (supplied by Sigma) as a coenzyme were added and reacted for 1.5 hours at 37° C.
After the reaction, formic acid was added to stop the reaction, and then acetonitrile (final concentration of 50%) was added and left for 1.5 hours at room temperature.
The activity of 20-HETE synthase was measured by using a high performance liquid chromatograph having a detector for radioactive substances (supplied by Gilson), and equipped with a C18 reversed phase column (Biocyl C18, supplied by Bio-rad).
Regarding `O=[N+]([O-])c1ccc(Sc2ccc(N/C=N/O)cc2)cc1` [Comp. 223], the “Inhibition rate (1 μM)” value was found to be 52.2. With `COc1ccc(CCCOc2ccc(N/C=N/O)cc2)cc1` [Comp. 375], the “Inhibition rate (1 μM)” value turned out to be 117.7.

Take `Cc1cc(N/C=N/O)ccc1N1C(=O)c2ccc(Cl)cc2C1=O` [Comp. 244]: the “Inhibition rate (1 μM)” value is given as 32.7. For `CC(C)=CCCC(C)CCOc1ccc(N/C=N/O)cc1` (centres unmarked) [Comp. 380], the “Inhibition rate (1 μM)” value is 118.9. As to `O/N=C/Nc1ccc2c(c1)Cc1cc(Br)ccc1-2` [Comp. 274], the “Inhibition rate (1 μM)” value was found to be 94.5. The same measure, in the same setting: next, `CCCCN(CCCC)CCCOC(=O)c1ccc(N/C=N/O)cc1` [Comp. 281]: 50.9; `CCC(C)CCOc1ccc(N/C=N/O)cc1` (centres unmarked) [Comp. 326]: 110.8; `O/N=C/Nc1ccc(OCc2cccc(Oc3ccccc3)c2)cc1` [Comp. 388]: 96.2. Still for that read-out and setting: the figure for `COC(=O)c1ccc(COc2ccc(N/C=N/O)cc2)cc1` [Comp. 396] is 102.7. `CCN(CC)CCOc1ccc(N/C=N/O)cc1` [Comp. 351]: the “Inhibition rate (1 μM)” value stood at 89.

In the case of `CN(C)c1ccc(/C=C/c2ccc(N/C=N/O)cc2)cc1` [Comp. 282], the “Inhibition rate (1 μM)” value is on record as 122.9. Still for that read-out and setting: the figure for `O=S(=O)(CCSc1ccccc1N/C=N/O)c1ccc(Cl)cc1` [Comp. 315] is 50.7; for `Cc1ccc(CO)cc1N/C=N/O` [Comp. 214] it is 31.9. The same measure, in the same setting: next, `O/N=C/Nc1cccc2ccccc12` [Comp. 242]: 50.6; `CCCCCCCCOc1ccc(N/C=N/O)cc1` [Comp. 322]: 117.5. For the compound `COc1ccc(CCCOc2ccc(N/C=N/O)cc2)cc1OC` [Comp. 374], the “Inhibition rate (1 μM)” value came to 119.1. `O/N=C/Nc1c(F)cc(Br)cc1Br` [Comp. 210]: the “Inhibition rate (1 μM)” value came to 78. The same measure, in the same setting: next, `CCC1(c2ccc(N/C=N/O)cc2)CCC(=O)NC1=O` (centres unmarked) [Comp. 245]: 55.4. With `COc1cc2c(cc1N/C=N/O)oc1ccccc12` [Comp. 277], the “Inhibition rate (1 μM)” value is 76.4. With `Cc1ccc2cc(N/C=N/O)ccc2n1` [Comp. 295], the “Inhibition rate (1 μM)” value is 73.8. The same measure, in the same setting: next, `O/N=C/Nc1ccc(OCCCCc2ccccc2)cc1` [Comp. 381]: 116.0.

With `CNS(=O)(=O)Cc1ccc(N/C=N/O)cc1` [Comp. 259], the “Inhibition rate (1 μM)” value came out at 52.8. Consider `COc1ccccc1CCOc1ccc(N/C=N/O)cc1` [Comp. 379], for which the “Inhibition rate (1 μM)” value stood at 105.4.

As for `O/N=C/Nc1ccc2ncccc2c1` [Comp. 297], the “Inhibition rate (1 μM)” value amounted to 71.1. With `O=c1ccc2cc(N/C=N/O)ccc2o1` [Comp. 304], the “Inhibition rate (1 μM)” value is 68.5. Consider `O=C(Nc1ccccc1)c1ccccc1N/C=N/O` [Comp. 278], for which the “Inhibition rate (1 μM)” value is given as 65.3. The same measure, in the same setting: next, `Cc1ccc(COc2ccc(N/C=N/O)cc2)cc1` [Comp. 383]: 116.2; `CCOC(=O)CCCCCOc1ccc(N/C=N/O)cc1` [Comp. 378]: 102.4; `O/N=C/Nc1ccc(OCC2CCCCCC2)cc1` [Comp. 370]: 113.7. The same measure, in the same setting: the figure for `COC(=O)c1ccc(N/C=N/O)c(C)c1` [Comp. 199] is 85.6. `O/N=C/Nc1c(F)c(F)c(F)c(F)c1F` [Comp. 215]: the “Inhibition rate (1 μM)” value was 36.1.

Still in this assay, the particulars now being: 1 μM of the subject compound added; 20-HETE production without compound set to 100%; rat kidney microsome.
Regarding `CC(C)OC(=O)c1ccc(N/C=N/O)cc1` [Comp. 188], the “Inhibition rate (1 μM)” value is given as 59.1.

Take `COc1ccc(N/C=N/O)cc1F` [Comp. 98]: the “Inhibition rate (1 μM)” value turned out to be 43.9.

For the compound `O/N=C/Nc1ccc(C(O)(C(F)(F)F)C(F)(F)F)cc1` [Comp. 105], the “Inhibition rate (1 μM)” value is on record as 46.7.

On to `Cc1cc(C)c(N/C=N/O)c([N+](=O)[O-])c1` [Comp. 95], for which the “Inhibition rate (1 μM)” value came to 44.5. Take `Cc1ccc(N/C=N/O)c(C)c1` [Comp. 22]: the “Inhibition rate (1 μM)” value is recorded as 95.7. As for `COc1cc(C#N)c(N/C=N/O)cc1OC` [Comp. 196], the “Inhibition rate (1 μM)” value was found to be 46.9.

`Cc1cccc(N/C=N/O)c1C` [Comp. 63]: the “Inhibition rate (1 μM)” value is 49.3. On to `O=C(OC/C=C/c1ccccc1)c1ccccc1N/C=N/O` [Comp. 138], for which the “Inhibition rate (1 μM)” value was 44.0. Consider `CCCc1cccc(N/C=N/O)c1` [Comp. 179], for which the “Inhibition rate (1 μM)” value is 63.5. As to `COc1ccc(Oc2ccc(C(F)(F)F)cc2N/C=N/O)cc1` [Comp. 156], the “Inhibition rate (1 μM)” value is recorded as 39.4.

Turning to `Cc1ccc(C(C)C)cc1N/C=N/O` [Comp. 57], the “Inhibition rate (1 μM)” value was 59.1.

With `CCOc1ccc(N/C=N/O)c([N+](=O)[O-])c1` [Comp. 94], the “Inhibition rate (1 μM)” value is listed as 41.2. Same read-out and setting: the figure for `Cc1cc(Br)cc(C)c1N/C=N/O` [Comp. 74] is 43.7; for `CSCc1cccc(C(F)(F)F)c1N/C=N/O` [Comp. 149] it is 36.5; for `N#Cc1ccc(N/C=N/O)cc1` [Comp. 112] it is 37.4.

Turning to `COc1cc(N/C=N/O)cc(OC)c1` [Comp. 76], the “Inhibition rate (1 μM)” value stood at 35.1. Regarding `Cc1ccc(N/C=N/O)c(CO)c1` [Comp. 171], the “Inhibition rate (1 μM)” value was found to be 54.1.

Turning to `O/N=C/Nc1ccccc1Br` [Comp. 75], the “Inhibition rate (1 μM)” value came to 46.9. Take `O/N=C/Nc1ccc(Cl)cc1Br` [Comp. 117]: the “Inhibition rate (1 μM)” value was determined as 71.6. In the case of `CCCc1ccccc1N/C=N/O` [Comp. 71], the “Inhibition rate (1 μM)” value was found to be 42.5. On to `CSc1cccc(N/C=N/O)c1` [Comp. 162], for which the “Inhibition rate (1 μM)” value is given as 62.6.

On to `O/N=C/Nc1ccc(I)cc1Cl` [Comp. 73], for which the “Inhibition rate (1 μM)” value was determined as 99.9. Same read-out and setting: the figure for `O/N=C/Nc1c(Br)cc(C2CCCCC2)cc1Br` [Comp. 102] is 44.4. Regarding `CC(=O)Nc1ccc(N/C=N/O)cc1C(F)(F)F` [Comp. 150], the “Inhibition rate (1 μM)” value was 34.1.

`Cc1ccc(N/C=N/O)c([N+](=O)[O-])c1` [Comp. 143]: the “Inhibition rate (1 μM)” value is 37.3.

In the case of `COC(=O)c1ccc(OC)c(N/C=N/O)c1` [Comp. 190], the “Inhibition rate (1 μM)” value is listed as 44.9. Same read-out and setting: next, `COc1ccc(C)c(N/C=N/O)c1` [Comp. 104]: 31.9; `Cc1c(Cl)cccc1N/C=N/O` [Comp. 67]: 48.4; `COc1ccc(N/C=N/O)cc1OC` [Comp. 78]: 36.3. With `COc1ccc(N/C=N/O)cc1Cl` [Comp. 101], the “Inhibition rate (1 μM)” value is reported as 52.4. With `COC(=O)c1ccc(N/C=N/O)cc1` [Comp. 123, N-(4-methoxycarbonylphenyl)-N′-hydroxyformamidine], the “Inhibition rate (1 μM)” value is listed as 92.7. On the same count and under the same terms, the figure for `O/N=C/Nc1ccccc1OC(F)F` [Comp. 153] is 39.4; for `CCOc1cccc(N/C=N/O)c1` [Comp. 66] it is 41.2. Still for that read-out and setting: next, `O/N=C/Nc1ccc(Br)cc1C(F)(F)F` [Comp. 77]: 49.0. In the case of `Cc1cccc(N/C=N/O)c1` [Comp. 62], the “Inhibition rate (1 μM)” value is listed as 69.5. `COc1cccc(N/C=N/O)c1` [Comp. 65]: the “Inhibition rate (1 μM)” value is given as 59.3. On the same count and under the same terms, next, `O/N=C/Nc1cccc(I)c1` [Comp. 91]: 36.6.

For the compound `CCc1cccc(C)c1N/C=N/O` [Comp. 139], the “Inhibition rate (1 μM)” value amounted to 69.7. The same measure, in the same setting: the figure for `COc1cc(OC)c(N/C=N/O)cc1Cl` [Comp. 108] is 36.4; for `CC(C)(C)c1cccc(N/C=N/O)c1` [Comp. 175] it is 69.9; for `O/N=C/Nc1cc(C(F)(F)F)ccc1Cl` [Comp. 80] it is 37.2.

Staying with this assay, now noted: 1 μM of the subject compound; 20-HETE production without compound set to 100%.
Regarding `O/N=C/Nc1ccc(SC2CCCC2)cc1` [Comp. 447], the “Inhibition rate (1 μM)” value is reported as 95.9.

Regarding `O/N=C/Nc1ccc(OCCSc2ccccc2)cc1` [Comp. 419], the “Inhibition rate (1 μM)” value is given as 116.1. For `CCOC(=O)CCSc1ccc(N/C=N/O)cc1` [Comp. 457], the “Inhibition rate (1 μM)” value is reported as 112.6. The same measure, in the same setting: next, `CCN(CC)CCSc1ccc(N/C=N/O)cc1` [Comp. 454]: 105.8. Turning to `Cn1c(=O)c2c(ncn2CCOc2ccc(N/C=N/O)cc2)n(C)c1=O` [Comp. 406], the “Inhibition rate (1 μM)” value turned out to be 73.7.

Regarding `CCCCSc1ccc(N/C=N/O)cc1` [Comp. 442], the “Inhibition rate (1 μM)” value came to 95.7.

For the compound `O/N=C/Nc1ccc(OCCOc2ccccc2)cc1` [Comp. 418], the “Inhibition rate (1 μM)” value came to 120.4. Turning to `CCCCCCCCCSc1ccc(N/C=N/O)cc1` [Comp. 453], the “Inhibition rate (1 μM)” value amounted to 95.3.

Consider `CCCCCCCSc1ccc(N/C=N/O)cc1` [Comp. 452], for which the “Inhibition rate (1 μM)” value came to 112.3. Same read-out and setting: next, `CCCCCSc1ccc(N/C=N/O)cc1` [Comp. 450]: 105.9; `COC(=O)CCSc1ccc(N/C=N/O)cc1` [Comp. 455]: 105.6; `O/N=C/Nc1ccc(SCc2ccc(Cl)cc2)cc1` [Comp. 437]: 96.1.

Staying with this assay, now noted: concentration at which production of 20-HETE was inhibited to 50%.
As usually defined, the IC50 is the concentration needed to halve the response being measured. `O/N=C/Nc1ccc(OCCCN2CCCC2)cc1` [Comp. 429] returned an IC50 of 79.1 nM. Turning to `OCCCCCOc1ccc(N/C=N/O)cc1` [Comp. 427], the 50% inhibitory concentration (IC50) turned out to be 2.6 nM.
